In patent US7691392B2 (Kosan Biosciences Incorporated, priority 2005, dated 2010):
“Also recorded” adds a separate entry of the source.

Columns and labels:
CD138+ myeloma cells = assay: Abnormal mitochondrial potential (apoptosis) of CD138+ cells from bone marrow aspirates; assay type: in vivo, human
Description: PD assessment included the following tests: The occurrence of specific toxicities (e.g., severity, duration and reversibility) was compared to PK parameters (e.g., clearance, exposure, elimination half-life, maximal plasma concentration, and time above a target plasma concentration). These toxicities included hepatotoxicity and gastrointestinal toxicities. The laboratory correlates included a) surface expression of insulin-like growth factor receptor-1 (IGF-1R) and b), total expression of Akt, Hsp90 and Hsp70. […] Immunoblotting analyses were used to evaluate the total levels of Akt, Hsp90 and Hsp70. […] Finally, peripheral blood mononuclear cells were isolated on two occasions (the first and last infusion in Cycle 1, on Days 1 and 11) prior to and 4 hours following the infusion. Cells were examined for change in client protein expression by Western Blot. Client proteins of interest include Hsp70, RAF1, LCK and CDK4 and others as indicated.
MM cells were purified by a Fluorescence Activated Cell Sorter (FACS) from the BMA based upon CD138 expression. These CD138^+ cells collected were then tested for abnormal mitochondrial potential by measuring mitochondrial potential in plasma cells using […] (BD Biosciences, San Jose, Calif.). […] Abnormal mitochondrial potential is observed prior to apoptosis of that cell (programmed cell death).

plasma protein = assay: Plasma protein binding, in vitro assays using human blood
Hsp70 = conditions: 320-450 mg/m^2/week; cited from earlier work
metastatic melanoma = conditions: cited from earlier work
CDK4 = conditions: at 24 hours; cited from earlier work
[1] = patients treated at 56 mg/m^2 17-AAG; cited from earlier work
[2] = Dose limiting toxicity and drug-related toxicities in the MM trial
Description: Non-Hematologic toxicities comprise: (1) any≧Grade 3 non-hematologic toxicity (except Grade 3 injection site reaction, alopecia, anorexia, fatigue), (2) nausea, diarrhea and/or vomiting of Grade≧3 despite the use of maximal medical intervention and/or prophylaxis, and/or (3) treatment delay of more than 4 weeks due to prolonged recovery from a drug-related toxicity.
The doses and schedule of study drug were as follows. […] Subsequent patient cohorts were enrolled per the escalation scheme outlined in the table below, as supported by observed toxicities. […] If one of three evaluable patients experienced a DLT, then the cohort was increased to six evaluable patients. If two or more of six evaluable patients in a cohort experienced a DLT, then the MTD was deemed to have been exceeded; all further accrual was at the previous dose level. If no more than one of the six patients experienced a DLT, then the next dose level was evaluated.

advanced solid tumors = conditions: patients with advanced solid tumors; cited from earlier work
[3] = weekly dosing schedule; cited from earlier work

C=CCNC1=C2C[C@@H](C)C[C@H](OC)[C@H](O)[C@@H](C)/C=C(\C)[C@H](OC(N)=O)[C@@H](OC)/C=C\C=C(/C)C(=O)NC(=CC1=O)C2=O [17-AAG, 17-Allylamino-17-demethoxygeldanamycin]
percent of CD138+ cells with abnormal mitochondrial potential in BM (CD138+ myeloma cells; Day 11 of treatment (less than 5% prior to treatment), p=0.06, FIG. 9): more than 40% | increase in percent of cells with abnormal mitochondrial potential (CD138+ myeloma cells; Day 11 versus prior to treatment): more than 35% | apoptosis in BMAs (CD138+ myeloma cells; screening versus Day 11, 150 and 220 mg/m^2 doses): increased apoptosis; also recorded: increase in apoptosis | protein bound in plasma (plasma protein): approximately 95% | patients with induction of the co-chaperone protein Hsp70 (Hsp70): 8 of 9 | complete or partial responses (metastatic melanoma; once weekly schedule): No complete or partial responses were recorded | stable disease (metastatic melanoma; patients treated at 320-450 mg/m^2): two showed radiologically documented long term stable disease | patients with depletion of CDK4 in tumor biopsies (CDK4): 8 out of 9 | Vz [1]: 93 L/m^2 | clearance [1]: 19.9 L/h/m^2 | DLT ([2]; 150 mg/m^2, four patients): DLT was not observed in any of these four patients | DLT ([2]; 220 mg/m^2, seven evaluable patients): DLT was observed in one patient; the DLT was liver infiltration of plasma cells with a Grade 3 elevated ALT | DLT ([2]; 275 mg/m^2 twice weekly two of three weeks, three patients): DLT was not observed in any of these three patients; also recorded: without reaching dose limiting toxicity | drug-related toxicities other than the single Grade 3 elevated ALT ([2]; all dose levels): Grade 1-2 elevated transaminases, nausea, fatigue, diarrhea, anemia, myalgias and rash | objective tumor responses (advanced solid tumors): No objective tumor responses have been observed | Vss [3]: 130 ± 50 L | t1/2 [3]: 2.98 ± 1.0 h
